The subject of this experiment is RAW 264.7 cells. Description: Quantitative cell-permeability of FITC-labeled aMTD- or rPeptide-fused CRA recombinant proteins by flow cytometry. The following applies: for Relative Ratio to aMTD AVE: cell-permeability of rPeptide relative to the average of 240 aMTDs. The class given is cell-based. The text has this:
The aMTDs and rPeptides were fluorescently labeled and compared based on the critical factors for cell-permeability by using flow cytometry and confocal laser scanning microscopy (FIG. 5 to 8). The cellular uptake of the peptide-fused non-functional cargo recombinant proteins could quantitatively be evaluated in flow cytometry, while confocal laser scanning microscopy allows intracellular uptake to be assessed visually. The analysis included recombinant proteins fused to a negative control [rP38] that has opposite characteristics (hydrophilic and aromatic sequence: YYNQSTCGGQCY) to the aMTDs (hydrophobic and aliphatic sequences). Relative cell-permeability (relative fold) of aMTDs to the negative control was also analyzed (TABLE 39 and FIG. 9).
Geometric means of negative control (histidine-tagged rP38-fused CRA recombinant protein) subtracted by that of naked protein (histidine-tagged CRA protein) lacking any peptide (rP38 or aMTD) was standardized as relative fold of 1.
For quantitative cell-permeability, the aMTD- or rPeptide-fused recombinant proteins were conjugated to fluorescein isothiocyanate (FITC) according to the manufacturer's instructions (Sigma-Aldrich, St. Louis, Mo.). RAW 264.7 cells were treated with 10 μM FITC-labeled recombinant proteins for 1 hour at 37° C., washed three times with cold PBS, treated with 0.25% tripsin/EDTA (Sigma-Aldrich, St. Louis, Mo.) for 20 minutes at 37° C. to remove cell-surface bound proteins. Cell-permeability of these recombinant proteins were analyzed by flow cytometry (Guava, Millipore, Darmstadt, Germany) using the FlowJo cytometric analysis software (FIG. 5 to 6). The relative cell-permeability of aMTDs were measured and compared with the negative control (rP38) and reference hydrophobic CPPs (MTM12 and MTD85) (TABLE 47).
A general note: In flow cytometry, cells or beads pass a laser one at a time.

The mark [1] stands for this setting: cell-permeability of aMTD-fused CRA recombinant protein relative to negative control rP38 (A type).
[2] abbreviates: cell-permeability relative to reference CPP MTD85 (C type).
[3] abbreviates: cell-permeability relative to reference CPP MTM12 (B type).
The mark [4] stands for this setting: cell-permeability of aMTD-fused CRA recombinant protein relative to negative control (A: rP38).
[5] abbreviates: cell-permeability of aMTD-fused CRA recombinant protein relative to reference CPP (B: MTM12).
The mark [6] stands for this setting: cell-permeability of aMTD-fused CRA recombinant protein relative to reference CPP (C: MTD85).

Regarding “22 (AVVLVPVLAAAP; Advanced Macromolecule Transduction Domain (aMTD) Sequences for Improvement of Cell-Permeability) [compound 22]”, the “Relative Ratio (Fold) A” value under setting [1] came out at 3.1 Fold. Further, the “Relative Ratio (Fold) C” value under setting [2] came out at 1.1 Fold. In addition, the “Relative Ratio (Fold) B” value under setting [3] turned out to be 2.1 Fold.

For the substance “23 (VVLVLPAAAAVP; Advanced Macromolecule Transduction Domain (aMTD) Sequences for Improvement of Cell-Permeability) [compound 23]”, under setting [1], the “Relative Ratio (Fold) A” value is 4.0 Fold. In addition, the “Relative Ratio (Fold) C” value under setting [2] is reported as 1.3 Fold. Moreover, the “Relative Ratio (Fold) B” value under setting [3] turned out to be 2.6 Fold.

As to “42 (VAALPVVAVVAP; Advanced Macromolecule Transduction Domain (aMTD) Sequences for Improvement of Cell-Permeability) [compound 42]”, the “Relative Ratio (Fold) A” value under setting [1] was determined as 2.5 Fold. Also, under setting [2], the “Relative Ratio (Fold) C” value came to 0.8 Fold. Also, under setting [3], the “Relative Ratio (Fold) B” value is 1.7 Fold.

As for “44 (ALAVPVALLVAP; Advanced Macromolecule Transduction Domain (aMTD) Sequences for Improvement of Cell-Permeability) [compound 44]”, the “Relative Ratio (Fold) A” value under setting [1] is recorded as 1.6 Fold. Moreover, under setting [2], the “Relative Ratio (Fold) C” value is reported as 0.5 Fold. For the same substance, under setting [3], the “Relative Ratio (Fold) B” value stood at 1.1 Fold.

For 49 (VVPAAPAVPVVP) [compound 49], the “Relative Ratio to aMTD AVE” value came to 0.18.

57 (QNNCNTSSQGGG) [compound 57]: the “Relative Ratio to aMTD AVE” value is 0.06.

Take “63 (AALLVPALVAVP; Advanced Macromolecule Transduction Domain (aMTD) Sequences for Improvement of Cell-Permeability) [compound 63]”: under setting [1], the “Relative Ratio (Fold) A” value was determined as 1.9 Fold. Further, the “Relative Ratio (Fold) C” value under setting [2] was 0.7 Fold. Also, under setting [3], the “Relative Ratio (Fold) B” value was found to be 1.3 Fold.

Turning to “81 (AALLPALAALLP; Advanced Macromolecule Transduction Domain (aMTD) Sequences for Improvement of Cell-Permeability) [compound 81]”, the “Relative Ratio (Fold) A” value under setting [1] worked out at 6.9 Fold. Further, the “Relative Ratio (Fold) C” value under setting [2] was 2.3 Fold. For the same substance, the “Relative Ratio (Fold) B” value under setting [3] stood at 4.6 Fold.

Turning to “101 (LVALAPVAAVLP; Advanced Macromolecule Transduction Domain (aMTD) Sequences for Improvement of Cell-Permeability) [compound 101]”, the “Relative Ratio (Fold) A” value under setting [1] is on record as 4.5 Fold. The “Relative Ratio (Fold) C” value under setting [2] is listed as 1.5 Fold. The “Relative Ratio (Fold) B” value under setting [3] is 3.0 Fold.

For “102 (LALAPAALALLP; Advanced Macromolecule Transduction Domain (aMTD) Sequences for Improvement of Cell-Permeability) [compound 102]”, under setting [1], the “Relative Ratio (Fold) A” value stood at 1.4 Fold. The “Relative Ratio (Fold) C” value under setting [2] stood at 0.5 Fold. Under setting [3], the “Relative Ratio (Fold) B” value was 0.9 Fold.

Regarding “103 (ALIAAPILALAP; Advanced Macromolecule Transduction Domain (aMTD) Sequences for Improvement of Cell-Permeability) [compound 103]”, the “Relative Ratio (Fold) A” value under setting [1] is reported as 2.1 Fold. In addition, the “Relative Ratio (Fold) C” value under setting [2] is on record as 0.7 Fold. Under setting [3], the “Relative Ratio (Fold) B” value is 1.4 Fold.

With “104 (AVVAAPLVLALP; Advanced Macromolecule Transduction Domain (aMTD) Sequences for Improvement of Cell-Permeability) [compound 104]”, the “Relative Ratio (Fold) A” value under setting [1] was determined as 7.3 Fold. In addition, the “Relative Ratio (Fold) C” value under setting [2] came out at 2.5 Fold. Besides, the “Relative Ratio (Fold) B” value under setting [3] worked out at 4.9 Fold.

Take “123 (AAIIVPAALLAP; Advanced Macromolecule Transduction Domain (aMTD) Sequences for Improvement of Cell-Permeability) [compound 123]”: the “Relative Ratio (Fold) A” value under setting [1] was determined as 2.9 Fold. Also, under setting [2], the “Relative Ratio (Fold) C” value was 1.0 Fold. In addition, the “Relative Ratio (Fold) B” value under setting [3] was determined as 2.0 Fold.

Turning to “144 (VLAIVPAVALAP; Advanced Macromolecule Transduction Domain (aMTD) Sequences for Improvement of Cell-Permeability) [compound 144]”, the “Relative Ratio (Fold) A” value under setting [1] is reported as 8.8 Fold. For the same substance, under setting [2], the “Relative Ratio (Fold) C” value is given as 3.0 Fold. Under setting [3], the “Relative Ratio (Fold) B” value came to 5.9 Fold.

On to “162 (AVVALPAALIVP; Advanced Macromolecule Transduction Domain (aMTD) Sequences for Improvement of Cell-Permeability) [compound 162]”, for which the “Relative Ratio (Fold) A” value under setting [1] was 8.2 Fold. The “Relative Ratio (Fold) C” value under setting [2] stood at 2.8 Fold. Also, under setting [3], the “Relative Ratio (Fold) B” value was found to be 5.5 Fold.

As to “163 (LALVLPAALAAP; Advanced Macromolecule Transduction Domain (aMTD) Sequences for Improvement of Cell-Permeability) [compound 163]”, the “Relative Ratio (Fold) A” value under setting [1] was 4.1 Fold. The “Relative Ratio (Fold) C” value under setting [2] came out at 1.4 Fold. The “Relative Ratio (Fold) B” value under setting [3] stood at 2.4 Fold.

For “164 (LAAVLPALLAAP; Advanced Macromolecule Transduction Domain (aMTD) Sequences for Improvement of Cell-Permeability) [compound 164]”, under setting [1], the “Relative Ratio (Fold) A” value stood at 8.2 Fold. Under setting [2], the “Relative Ratio (Fold) C” value was found to be 2.8 Fold. The “Relative Ratio (Fold) B” value under setting [3] stood at 5.5 Fold.

With “165 (ALAVPVALAIVP; Advanced Macromolecule Transduction Domain (aMTD) Sequences for Improvement of Cell-Permeability) [compound 165]”, the “Relative Ratio (Fold) A” value under setting [4] stood at 19.8 Fold. Besides, under setting [5], the “Relative Ratio (Fold) B” value was found to be 13.2 Fold. Also, under setting [6], the “Relative Ratio (Fold) C” value is recorded as 6.7 Fold.

Take “204 (LIAALPAVAALP; Advanced Macromolecule Transduction Domain (aMTD) Sequences for Improvement of Cell-Permeability) [compound 204]”: the “Relative Ratio (Fold) A” value under setting [1] amounted to 2.2 Fold. Also, the “Relative Ratio (Fold) C” value under setting [2] is given as 0.8 Fold. For the same substance, the “Relative Ratio (Fold) B” value under setting [3] is 1.5 Fold.

Take “205 (ALALVPAIAALP; Advanced Macromolecule Transduction Domain (aMTD) Sequences for Improvement of Cell-Permeability) [compound 205]”: the “Relative Ratio (Fold) A” value under setting [1] was found to be 2.6 Fold. For the same substance, under setting [2], the “Relative Ratio (Fold) C” value is on record as 0.9 Fold. Under setting [3], the “Relative Ratio (Fold) B” value is reported as 1.7 Fold.

Regarding “224 (ILAAVPIALAAP; Advanced Macromolecule Transduction Domain (aMTD) Sequences for Improvement of Cell-Permeability) [compound 224]”, the “Relative Ratio (Fold) A” value under setting [4] is recorded as 15.8 Fold. The “Relative Ratio (Fold) B” value under setting [5] was determined as 10.6 Fold. Moreover, under setting [6], the “Relative Ratio (Fold) C” value is reported as 5.3 Fold.

With “285 (AIVLLPAAVVAP; Advanced Macromolecule Transduction Domain (aMTD) Sequences for Improvement of Cell-Permeability) [compound 285]”, the “Relative Ratio (Fold) B” value under setting [5] came out at 8.9 Fold.

With “363 (AVLAVAPALIVP; Advanced Macromolecule Transduction Domain (aMTD) Sequences for Improvement of Cell-Permeability) [compound 363]”, the “Relative Ratio (Fold) A” value under setting [4] came to 14.7 Fold. Under setting [5], the “Relative Ratio (Fold) B” value is on record as 9.8 Fold. Further, under setting [6], the “Relative Ratio (Fold) C” value was determined as 4.9 Fold.

On to “442 (ALAALVPAVLVP; Advanced Macromolecule Transduction Domain (aMTD) Sequences for Improvement of Cell-Permeability) [compound 442]”, for which the “Relative Ratio (Fold) B” value under setting [5] was found to be 13.6 Fold.

Take “481 (AIAIAIVPVALP; Advanced Macromolecule Transduction Domain (aMTD) Sequences for Improvement of Cell-Permeability) [compound 481]”: under setting [4], the “Relative Ratio (Fold) A” value worked out at 34.3 Fold. Further, the “Relative Ratio (Fold) B” value under setting [5] is 23.0 Fold. Moreover, the “Relative Ratio (Fold) C” value under setting [6] came out at 11.6 Fold.

As for “484 (LAVVLAAPAIVP; Advanced Macromolecule Transduction Domain (aMTD) Sequences for Improvement of Cell-Permeability) [compound 484]”, the “Relative Ratio (Fold) A” value under setting [4] came out at 15.6 Fold.

For “501 (VIVALAVPALAP; Advanced Macromolecule Transduction Domain (aMTD) Sequences for Improvement of Cell-Permeability) [compound 501]”, under setting [6], the “Relative Ratio (Fold) C” value turned out to be 7.3 Fold.

The values are drawn from US10323063B2, “Advanced macromolecule transduction domain (aMTD) sequences for improvement of cell-permeability, polynucleotides encoding the same, method to identify the unique features of aMTDs comprising the same, method to develop the aMTD sequences comprising the same” (CELLIVERY THERAPEUTICS, INC., priority 2014, dated 2019).
